Data: patent US20170283458A1, “COLLAGEN-BINDING SYNTHETIC PEPTIDOGLYCANS FOR WOUND HEALING” (Symic Biomedical, Inc., priority 2009, published 2017)
Ends that are not written are not given here.

Key:
[1] = molecular target: T1, collagen (Bos taurus, UniProt P02453+P02465); test: Fibrillogenesis turbidity assay (absorbance at 313 nm); format: biochemical; conditions: 4 mg/mL collagen, 10:1 collagen:treatment unless otherwise indicated
T1 construct: purchased Inamed, Freemont, Calif; Nutragen
Description: Gels were made with Nutragen collagen (Inamed, Freemont, Calif.) at a final concentration of 4 mg/mL collagen. Nutragen stock is 6.4 mg/mL in 10 mM HCl. Gel preparation was performed on ice, and fresh samples were made before each test. The collagen solution was adjusted to physiologic pH and salt concentration, by adding appropriate volumes of 10×PBS (phosphate buffered saline), 1×PBS, and 1M NaOH. For most experiments, samples of DS, decorin, DS-SILY, or DS-Dc13 were added at a 10:1 collagen:treatment molar ratio by a final 1×PBS addition (equal volumes across treatments) in which the test samples were dissolved at appropriate concentrations. In this way, samples are constantly kept at pH 7.4 and physiologic salt concentration. Collagen-alone samples received a 1×PBS addition with no sample dissolved. Fibrillogenesis will be induced by incubating neutralized collagen solutions at 37° C. overnight in a humidified chamber to avoid dehydration. Gel solutions with collagen:treatment molar ratios of other than 10:1 were prepared similarly.
Collagen fibrillogenesis was monitored by measuring turbidity related absorbance at 313 nm providing information on rate of fibrillogenesis and fibril diameter. Gel solutions were prepared as described in EXAMPLE 16 (4 mg/mL collagen, 10:1 collagen:treatment, unless otherwise indicated) and 50 uL/well were added at 4° C. to a 384-well plate. The plate was kept at 4° C. for 4 hours before initiating fibril formation. A SpectraMax M5 at 37° C. was used to measure absorbance at 313 nm at 30 s intervals for 6 hours.
A fibrillogenesis assay as described for DS-SILY, EXAMPLE 19, performed with the conjugate DS-Dc13.

[2] = tested on: HCA SMCs; test: Measurement of elastin (Fastin assay) in cell-seeded collagen gels; format: cell-based, human; conditions: gels cultured for 10 days
Description: Collagen gels seeded with HCA SMCs were prepared as described in EXAMPLE 30. Differentiation medium was changed every three days and gels were cultured for 10 days. Collagen gels containing no cells were used as a control. Gels were rinsed in 1×PBS overnight to remove serum protein, and gels were tested for elastin content using the Fastin elastin assay per manufacturers protocol (Biocolor, County […].). Briefly, gels were solubilized in 0.25 M oxalic acid by incubating at 100° C. for 1 hr. Elastin was precipitated and samples were then centrifuged at 11,000×g for 10 min. The solubilized collagen supernatant was removed and the elastin pellet was stained by Fastin Dye Reagent for 90 min at room temperature. Samples were centrifuged at 11,000×g for 10 min and unbound dye in the supernatant was removed. Dye from the elastin pellets was released by the Fastin Dye Dissociation Reagent, and 100 μL samples were transferred to a 96-well plate (Costar). Absorbance was measured at 513 nm, and elastin content was calculated from an α-elastin standard curve.

[3] = tested on: Long-Evans rats; test: Rat incisional model, trichrome histological scoring of scar tissue (Beausang); format: in vivo; conditions: 21-days post-injury; 0.125 mg and 0.625 mg; vs untreated wounds
Description: Using sterile techniques, longitudinal wounds were incised on shaved dorsal skin of the rats. A 4 cm incision was cut through the panniculus down to the skeletal musculature, and a 250 μL single dose of either 10 mg/mL hyaluronic acid (HA) or HA+DS-SILY was applied to the open wound by a syringe. DS-SILY was tested at 0.5, 1, and 2.5 mg/mL mixed with HA. The incision was then sutured closed and animals were returned to individual cages and monitored for complications. Negative control rats received no treatment and were treated identically. A pilot study was performed (n=3) at time points 3, 7, 10, 14, and 21 days, followed by a higher powered study (n=9) for 21 and 28 day time points. […]
H&E stained samples were examined for inflammation by a board certified pathologies blinded to the treatments following a scale adapted from Simhon et al. Trichrome stained samples were evaluated for scar tissue formation by an observer blinded to the treatments using a method established by Beausang et al. in which collagen orientation, density, and maturation are observed and compared to collagen of healthy tissue. A total of 12 tissue samples were analyzed for each study at each time point. Statistics were analyzed by ANOVA using Design Expert software (StatEase, Minneapolis, Minn.). […]

[4] = tested on: Long-Evans rats; test: Rat incisional model, visual scar scoring (visible scar length); format: in vivo
Description: Using sterile techniques, longitudinal wounds were incised on shaved dorsal skin of the rats. A 4 cm incision was cut through the panniculus down to the skeletal musculature, and a 250 μL single dose of either 10 mg/mL hyaluronic acid (HA) or HA+DS-SILY was applied to the open wound by a syringe. DS-SILY was tested at 0.5, 1, and 2.5 mg/mL mixed with HA. The incision was then sutured closed and animals were returned to individual cages and monitored for complications. Negative control rats received no treatment and were treated identically. A pilot study was performed (n=3) at time points 3, 7, 10, 14, and 21 days, followed by a higher powered study (n=9) for 21 and 28 day time points.
Photographs of scars were taken at the time of necropsy using a digital camera with predetermined manual settings mounted on a camera stand to standardize focal distance
(FIG. 36). A scale bar was included in each image and was used to determine the visible scar length. At the 21 and 28-day times points, five blinded observers traced the visible scar length using ImageJ software (NIH) to give a quantitative measure of visual scar healing.

T1 sequence (P02453 162-1217 limits assumed): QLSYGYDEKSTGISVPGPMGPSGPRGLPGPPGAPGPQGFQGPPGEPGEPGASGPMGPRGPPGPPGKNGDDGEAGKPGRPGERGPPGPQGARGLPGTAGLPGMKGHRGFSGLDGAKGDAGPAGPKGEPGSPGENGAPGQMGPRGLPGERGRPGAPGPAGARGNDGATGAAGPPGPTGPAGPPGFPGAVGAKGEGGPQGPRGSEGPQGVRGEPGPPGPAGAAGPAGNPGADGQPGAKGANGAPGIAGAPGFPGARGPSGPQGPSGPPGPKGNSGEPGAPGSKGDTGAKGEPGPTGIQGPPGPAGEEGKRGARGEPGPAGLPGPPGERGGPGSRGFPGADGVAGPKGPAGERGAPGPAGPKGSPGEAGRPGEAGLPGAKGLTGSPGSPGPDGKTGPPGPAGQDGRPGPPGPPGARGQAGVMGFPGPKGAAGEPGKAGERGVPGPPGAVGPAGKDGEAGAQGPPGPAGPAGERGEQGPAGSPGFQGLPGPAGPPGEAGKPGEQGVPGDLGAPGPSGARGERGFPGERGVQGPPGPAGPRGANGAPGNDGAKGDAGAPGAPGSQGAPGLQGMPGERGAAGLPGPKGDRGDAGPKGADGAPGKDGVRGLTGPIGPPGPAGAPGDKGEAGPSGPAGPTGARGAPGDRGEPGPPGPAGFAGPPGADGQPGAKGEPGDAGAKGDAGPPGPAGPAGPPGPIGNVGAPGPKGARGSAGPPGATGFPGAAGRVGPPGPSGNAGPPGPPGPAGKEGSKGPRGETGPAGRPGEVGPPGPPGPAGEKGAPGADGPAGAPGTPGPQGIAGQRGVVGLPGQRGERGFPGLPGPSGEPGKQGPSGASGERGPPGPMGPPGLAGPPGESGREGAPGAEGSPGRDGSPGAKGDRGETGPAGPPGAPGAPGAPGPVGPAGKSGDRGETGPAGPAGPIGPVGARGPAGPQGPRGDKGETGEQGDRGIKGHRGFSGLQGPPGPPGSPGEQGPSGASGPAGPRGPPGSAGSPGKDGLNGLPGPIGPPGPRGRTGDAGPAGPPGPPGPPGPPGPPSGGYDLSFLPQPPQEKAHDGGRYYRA
T1 sequence (P02465 80-1117 limits assumed): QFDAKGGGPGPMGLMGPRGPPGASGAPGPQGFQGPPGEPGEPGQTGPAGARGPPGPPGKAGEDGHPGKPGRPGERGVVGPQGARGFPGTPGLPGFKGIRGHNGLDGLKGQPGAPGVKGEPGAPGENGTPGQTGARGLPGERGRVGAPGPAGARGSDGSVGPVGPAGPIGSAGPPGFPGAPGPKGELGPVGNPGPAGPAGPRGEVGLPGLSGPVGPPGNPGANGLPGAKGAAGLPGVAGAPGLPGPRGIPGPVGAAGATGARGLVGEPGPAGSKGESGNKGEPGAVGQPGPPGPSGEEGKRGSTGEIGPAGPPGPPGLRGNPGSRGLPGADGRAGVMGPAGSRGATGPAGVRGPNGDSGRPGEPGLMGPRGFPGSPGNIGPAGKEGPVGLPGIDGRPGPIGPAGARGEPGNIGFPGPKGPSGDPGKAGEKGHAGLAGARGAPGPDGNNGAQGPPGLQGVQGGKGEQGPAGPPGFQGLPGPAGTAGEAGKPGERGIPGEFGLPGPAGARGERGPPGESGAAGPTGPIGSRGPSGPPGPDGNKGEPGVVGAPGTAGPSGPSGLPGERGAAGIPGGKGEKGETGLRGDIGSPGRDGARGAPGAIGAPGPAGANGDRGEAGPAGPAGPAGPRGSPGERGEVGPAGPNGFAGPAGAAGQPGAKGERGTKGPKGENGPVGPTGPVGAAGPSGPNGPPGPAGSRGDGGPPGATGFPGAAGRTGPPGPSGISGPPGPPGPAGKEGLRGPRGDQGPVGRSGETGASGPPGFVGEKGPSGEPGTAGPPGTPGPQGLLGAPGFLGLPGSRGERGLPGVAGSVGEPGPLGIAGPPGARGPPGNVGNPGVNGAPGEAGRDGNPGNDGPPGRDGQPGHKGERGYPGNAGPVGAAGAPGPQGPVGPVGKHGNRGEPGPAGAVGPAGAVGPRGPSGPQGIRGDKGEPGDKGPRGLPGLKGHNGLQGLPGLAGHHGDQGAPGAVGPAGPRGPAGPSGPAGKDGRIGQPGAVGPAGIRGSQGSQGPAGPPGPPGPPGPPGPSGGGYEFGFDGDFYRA

DS-SILY: collagen-binding peptidoglycan in which a single SILY peptide was conjugated to dermatan sulfate via PDPH (RRANAALKAGELYKSILYGC; also: single peptide conjugated to dermatan sulfate via PDPH, site not given here)
rate of fibrillogenesis [1]: decrease the rate of fibrillogenesis
elastin production [2]: significantly increased elastin production over all samples
histological score for collagen maturity and organization (scar tissue) [3]: significantly lower scores
visible scar length ([4]; 21 days, both doses (0.125 mg, 0.25 mg)): decreased visible scar length measured by 5 blinded observers was significant
visible scar length ([4]; 28 days, high dose (0.25 mg)): not significant at 28 days compared to HA control
